This note sets out measurements from a melting point compilation (Tetko et al.; mined from patent text by program, amines drawn as free bases though some values may be those of a salt).

What is called melting point is the temperature of the solid-liquid transition.

`O=C(O)c1ccc(-c2ccc3nnn(Cc4c(F)ccc(F)c4Cl)c3n2)cc1F`: the melting point is 211 to 213 °C.
The result for `O=C(Cl)c1cc2ccccc2[nH]1` reads 120 °C; that for `C[C@@H]1Cc2cc(N3C[C@H](CN)OC3=O)ccc2N1C(=O)OCc1ccccc1`, 120 to 122 °C.
The result for `O=C(Nc1cccc(Br)c1)c1ccccc1SSc1ccccc1C(=O)Nc1cccc(Br)c1` reads 194 to 196 °C; that for `CCC(C(=O)O)N(C(=O)c1cnn(-c2ccc(F)cc2)c1)c1ccc(OCC(C)(C)C)c(C#N)c1` (configuration not stated), 153 to 155 °C; that for `Cc1sc2c(Br)c3ccccc3c(-c3cc(Br)c(O)c(C4CCCC4)c3)c2c1C`, 190 to 191 °C.
Then `CCOC(=O)N1CCC(NC(=S)Nc2cc(Cl)ccc2NCc2ccccc2)CC1`, with 162 °C; and `Cn1c([N+](=O)[O-])cnc1C1=NO[C@@H]2CCCCCC[C@@H]12` (relative stereo), with 106 to 109 °C.
In the case of `Cc1ccc(-c2cc(N3CCC(C(N)=O)CC3)c3ccccc3n2)cc1`, the melting point lay within 230 to 232 °C.
The result for `C=Cc1cc2ccccc2[nH]1` reads 91 °C; that for `CN(C)c1ccc(-c2cc(-c3ccnc4c(C(=O)c5cccs5)cnn34)ccc2F)cc1`, 219 to 221 °C.
Then `O=C1C(=O)c2ccc(-c3ccncc3)cc2C2=C1SCC1(CCNCC1)O2`, with 223 to 228 °C.
Take `NC(=O)C1CCC(NC(=O)NCc2ccc3c(c2)CN(C2CCC(=O)NC2=O)C3=O)CC1` (configuration not stated): the melting point lay in the range of 195 to 197 °C.
The result for `CC1=C(C(=O)OCC2CCCO2)C(c2cccc([N+](=O)[O-])c2)C(C(=O)OCC2CCCO2)=C(C)N1` (configuration not stated) reads 122 to 123 °C; that for `Cc1c(O)c(=O)ccn1Cc1ccccc1`, 205 to 207 °C; that for `O=C(CCN1CCCCC1)Nc1ccc2c(c1)C(=O)c1cc(NC(=O)CCN3CCCCC3)ccc1C2=O`, 240 °C.
Then `COc1ccc(Nc2nc(NC3CCNCC3)nc(N(C)N3CCCCCC3)n2)cc1Cl`, with 81 °C.
Then `COc1cc2c(cc1OC)CN(CCCCNC(=O)c1cc(C)ccc1OCCF)CC2`, with 131 to 133 °C; and `COc1ccc(C(CN)C2CCCCC2O)cc1` (mixture of isomers), with 79 to 81 °C.
`CN1C(=O)CC(C(=O)Nc2ccc(F)cc2)C(=O)c2cc(F)ccc21` (configuration not stated) gave a melting point of 180 to 182 °C.
`Nc1nc(=O)n(C2OC(CO)CC2O)cc1F` (configuration not stated) registered a melting point of 137 to 138 °C.
The result for `N#Cc1cccc(Cn2cnc(C(N)=O)c2N)c1` reads 246 to 247 °C; that for `CC(C)(C)C(=O)c1c[nH]c2ncc(-c3cccc(C#N)c3)nc12`, 248 to 249 °C.
For the molecule `COc1cc(-c2nc3ccccc3n2Cc2ccccc2I)cc(OC)c1OC`, the melting point worked out at 179 °C.
Then `COc1ccc2c(c1)c(Cc1cc(=O)n(-c3ccc(C)nn3)[nH]1)c(C)n2C(=O)c1ccc(Cl)cc1`, with 122 to 124 °C; and `ClCc1cn2cc(Cl)cc(Cl)c2n1`, with 162 to 163 °C.
Then `O=C1C(=O)c2ccccc2C2=C1SCC(CN1CCC(CO)CC1)O2` (configuration not stated), with 200 to 202 °C; and `CC(C)C1NC(c2ccccc2)=NNC1=O` (configuration not stated), with 164 °C; and `CCCC1=C(C(=O)OCC)C(c2cc(F)ccc2OC)c2c[nH]nc2N1` (configuration not stated), with 164 to 167 °C.
In turn, `O=C1Nc2c(ccc3ccccc23)OC1c1ccc(Cl)cc1` (configuration not stated) had a melting point of 230 to 232 °C.
The result for `Cc1c(-c2ccccc2)oc2c(CSCCCl)cccc2c1=O` reads 82 to 83 °C; that for `CCCc1nc(-c2cccnc2)cnc1NN`, 162 to 163 °C; that for `O=c1[nH]c(COc2cccc(Cl)c2Cl)nc2nccnc12`, 219 to 220 °C.
The result for `CCCCC(CC)C(=O)Nc1ccc2ccn(Cc3ccc(C(=O)O)cc3OC)c2c1` (configuration not stated) reads 234 to 235 °C; that for `Cc1cccc2c1N(CC(=O)N1CC3CCC(CC3)C1)C(=O)C(NC(=O)Nc1cccc(-c3nnn[nH]3)c1)N=C2c1ccccc1F` (configuration not stated), 210 to 213 °C.
Then `CNC(=O)C(C#N)C(=O)Nc1ccc(C(F)(F)F)cc1` (configuration not stated), with 184 to 186 °C; and `CC(=O)Nn1c(=O)c(=O)[nH]c2ccccc21`, with 211 to 213 °C; and `NNC(=O)NN=Cc1ccc(Cl)cc1`, with 188 to 189 °C.
On to `CC(=O)Nc1ccc(Nc2c([N+](=O)[O-])cc(C(=O)O)cc2S(=O)(=O)NC(C)=O)cc1`, for which the melting point was 175 to 185 °C.
`COc1ccc(-n2nc(N3CCN(C#N)CC3)c3ccccc32)cc1` returned a melting point of 118 to 120 °C.
Then `FC(F)c1nc2ccccc2n1-c1nc(Nc2cnc3ccccc3c2)nc(N2CCOCC2)n1`, with 270 to 273 °C.
The result for `COC(=O)c1cn(-c2ccc(O)cc2C)c(C2CCNCC2)cc1=O` reads 226 to 228 °C.
The result for `O=C(C=c1sc2n(c1=O)Cc1ccccc1N=2)Oc1ccccc1` reads 194 to 195 °C.
As for `CC(C)(N)c1ccc(-c2nc(Nc3ccc(F)cc3F)ncc2C#N)cc1`, the melting point was 203 °C.
Then `CC(=O)Nc1cc(C(C)(C)C)c(SC2=C(O)CC(CCc3ccc(O)cc3)(C3CCCCC3)OC2=O)cc1C` (configuration not stated), with greater than 154 °C; and `O=C1c2cccc(O)c2CC12CCCCC2`, with 162 to 164 °C.
The result for `COc1cc2cc(COCC(=O)N3CCN(C)CC3)c(CO)c(-c3ccnc(-n4c(=O)ccc5ccccc54)c3)c2cc1OC` reads 100 to 102 °C.
The result for `Cc1csc2c1c(=O)oc(=O)n2Cc1ccccc1` reads 183 °C; that for `CC(=O)Nc1c(C(=O)c2ccccc2C)[nH]c2cc(Cl)ccc12`, 140 to 142 °C.
`Cc1cccc(C)c1N(C(C)C(=O)NN)S(C)(=O)=O` (configuration not stated) came in with a melting point of 115 to 118 °C.
The result for `COC(=O)/C=C(/C#Cc1ccccc1)c1ccccc1` reads 73 to 75 °C.
The result for `O=C1c2cc3nnn(Cc4cccnc4)c(=O)c3cc2OC2CCCN12` (configuration not stated) reads 203 to 205 °C; that for `CN1CCC(CCCOc2cc3ncnc(Nc4cccc(Br)c4)c3cc2N)CC1`, 191 to 198 °C.
The result for `COC(=O)CCCCCCCCOC1OC(CO)C(OC2OC(C)C(O)C(O)C2O)C(O)C1NC(C)=O` (configuration not stated) reads 145 to 146 °C.
The molecule `Nc1ccc([C@@H](O)CNC[C@@H]2CCc3cc(S(=O)(=O)Nc4ccc(-n5nnn(CCCC6CCCC6)c5=O)cc4)ccc3O2)cn1` had a melting point of 99.3 to 99.7 °C.
Then `CCCCCCCCc1ccc(CCC(NC(C)=O)(C(=O)OCC)C(=O)OCC)cc1`, with 61 °C.
The result for `CC(=O)c1cc2c(s1)S(=O)CCN(CCCCN1CCN(c3ncccn3)CC1)C2=O` (configuration not stated) reads 103 to 106 °C; that for `COc1ccccc1N(CC(=O)N(C)c1ccccc1)C(=O)CNC(=O)Nc1cccc(C)c1`, 212 °C; that for `Cc1nc(N)nc(N)c1N1CCN(Cc2ccccc2)CC1`, 209 to 210 °C.
Then `O=C(NC1CCN(CCC2CCCCC2)CC1)c1ccccc1`, with 174 to 175 °C; and `CCNc1cc(NS(=O)(=O)c2ccc(N)cc2)nc(N(C)C)n1`, with 237 to 238 °C; and `CON=C(C)c1cc2c(Oc3ccc(Cl)cc3)cncc2s1`, with 126 to 128 °C.
As for `O=C(NCc1ncc(C(F)(F)F)cc1Cl)c1c(Cl)ccnc1Cl`, the melting point was 122 to 124 °C.
Then `O=C1C=CC2=CN=C(c3ccco3)N3CCC(=C23)N1`, with 278 to 279 °C; and `COc1cc2c(Nc3cc(O)c(Cl)cc3F)c(C#N)cnc2c(OC)c1OC`, with 223 to 225 °C.
For the molecule `CCOCc1nc2c(N)nc(C)c(C)c2n1CCOCC#Cc1cncnc1`, the melting point lay in the range of 122 to 124 °C.
Then `COC(=O)c1c(C(=O)OC)n(Cc2cccc(C(N)=S)c2)c2ccccc12`, with 176 to 178 °C; and `O=C1NCCN1c1cccc([N+](=O)[O-])c1`, with 158 to 160 °C; and `O=C(O)CCc1cc(OCc2ccccc2)nn1Cc1ccc(Cl)cc1Cl`, with 98 to 101 °C.
Then `CN1CCC(=C2c3cc(Br)ccc3CC(=O)c3sccc32)CC1`, with 172 to 173 °C.
The result for `c1ccc(C(c2ccnc3ccccc23)n2ccnc2)cc1` (configuration not stated) reads 143 °C; that for `CN1CCN(c2ccccc2C=C2CCCN(c3ccc(Cl)c(Cl)c3)C2=O)CC1`, 138 to 140 °C; that for `COC(=O)c1ccc(CC(C)NCC(O)c2cccc(C(F)(F)F)c2)cc1` (configuration not stated), 73 to 88 °C.
Regarding `Cc1ccc(NC(=O)c2ccc(CN3CC[N+](C)([O-])CC3)cc2)cc1Nc1nccc(-c2cccnc2)n1`, the melting point lay within 154 to 158 °C.
In the case of `CCOc1cccc(CNC(=O)c2nc3scc(COCc4ccc(C(=O)O)cc4)c3c(=O)[nH]2)c1`, the melting point is 240 °C.
Then `CC1(C)C(=O)Oc2ccc(C#N)cc21`, with 138 to 140 °C; and `COc1cc(/C=C/C=C/C=O)ccc1OCc1nc(-c2ccccc2)oc1C`, with 133 to 134 °C; and `CCOCc1cc2cc(Cl)ccc2oc1=Nc1cccc(OC)c1`, with 96.5 to 97.5 °C.
Then `O=C(NCCSCc1ccc(Cl)cc1)c1c(Cl)cccc1Cl`, with 104 to 106 °C; and `CCCC(C)(Br)C(=O)Nc1ccc(C(C)C)cc1` (configuration not stated), with 87.2 to 88.2 °C.
Molecule `CCOc1sc(C(N)=O)c2c1-c1c(cnn1C)CC2` displayed a melting point of 200 to 202 °C.
In turn, `COc1ccc(C#N)c(F)c1OC(C)=O` returned a melting point of 90 to 91 °C.
As for `COc1ccc(C(=O)C2=C(c3ccc(OC)cc3)CCc3cc(OC)ccc32)cc1`, the melting point lay in the range of 172 to 173 °C.
The result for `CC(C)(C=O)NC(=O)OC(C)(C)C` reads 84 to 85 °C; that for `Nc1nc(Cl)c2ncn(COCCOCCOC(=O)c3ccccc3)c2n1`, 111 to 112 °C; that for `CCc1sc2c(c1C(=O)CCCN1CCC(c3noc4cc(F)ccc34)CC1)CCN(C(C)=O)C2`, 93 to 95 °C.
Then `COc1cc(NC(=O)c2ccccc2Cl)ccc1C(=O)N1CCCC(OCCNS(=O)(=O)C(F)(F)F)c2cc(Cl)ccc21` (configuration not stated), with 140 to 142 °C.
